# Assay results published in US10537561B2 (Novartis AG, priority 2011, dated 2020).
# Key:
# PDGFR-β = PDGFR-β (Homo sapiens, UniProt P09619); experiment: PDGFR-β inhibition; assay type: biochemical; settings: read-out: PDGFR-β IC-50
# CSF-1R = CSF-1R (Homo sapiens, UniProt P07333); experiment: CSF-1R inhibition, biochemical assay
# [1] = tested on: glioma in RCAS-PDGF-B-HA/Nestin-Tv-a; Ink4a/Arf−/− mice; experiment: Long-term survival trial in glioma model; assay type: in vivo, mouse
# [2] = tested on: CSF-dependent cell proliferation; experiment: CSF-dependent cell proliferation; assay type: cell-based; settings: read-out: CSF-dependent cell proliferation IC-50
# [3] = tested on: neurospheres derived from mouse RCAS-PDGF-B-HA/Nestin-Tv-a; Ink4a/Arf−/− GBMs; experiment: Secondary neurosphere formation assay; assay type: cell-based
# Protocol: (§1) For neurosphere formation the cell pellet was resuspended in neurosphere media consisting of mouse NSC Basal Media, NSC proliferation supplements, 10 ng/ml EGF, 20 ng/ml basic-FGF and 1 mg/ml Heparin (Stem Cell Technologies). Fresh media was added every 72 hours for 2 weeks. Primary neurospheres were collected, mechanically disaggregated to a single cell suspension and propagated by serial passaging. To generate glioma cell lines, secondary neurospheres were dissociated to single cell suspensions and cultivated in DMEM+10% FBS as a monolayer. Multiple glioma cell lines were derived from independent mice, denoted GBM1-4 herein. Glioma cells were infected with a pBabe-H2B-mCherry construct as described previously (O. Florey, et al., Nat Cell Biol 13, 1335 (2011)).
# Media was changed every 48 hours. Secondary neurosphere formation was assayed by counting the number of neurospheres obtained after 2 weeks.
# [4] = target: >200 miscellaneous kinases; experiment: Kinase selectivity panel; assay type: biochemical; settings: read-out: IC50 values for most of >200 miscellaneous kinases
# [5] = tested on: Bone marrow-derived macrophages (BMDMs); experiment: BMDM proliferation/survival (MTT); assay type: cell-based, mouse
# Protocol: (§2) Cell growth rate was determined using the MTT cell proliferation kit (Roche). […] Media was changed every 48 hours. BMDM and CRL-2467 cells were supplemented with 10 ng/ml and 30 ng/ml recombinant mouse CSF-1 respectively unless otherwise indicated. 10 μl of MTT labeling reagent was added to each well and then incubated for 4 hours at 37° C., followed by the addition of 100 μl MTT solubilization reagent overnight. The mixture was gently resuspended and absorbance was measured at 595 nm and 750 nm on a spectraMax 340pc plate reader (Molecular Devices).
# [6] = tested on: glioma in RCAS-PDGF-B-HA/Nestin-Tv-a; Ink4a/Arf−/− mice; experiment: Histologic analyses of tumors from short-term trial; assay type: in vivo, mouse; settings: for Apoptosis (% CC3+) / Macrophages (% CD68+) / Total DAPI+ Cells / Tumor Cells (% Olig2+) / Phagocytic Capacity / Vasculature (CD31 MVD): vs vehicle
# Protocol: The analyses were performed on tissues from the short-term trial (see Example 5), so that tumors from the different treatment groups could be compared at the same defined endpoint. Tumor cell density was examined using the oligodendrocyte marker Olig2, which has previously been used to identify glioma cells. […] (FIG. 6A).
# To isolate tissues for snap freezing in liquid nitrogen, mice were euthanized by carbon dioxide asphyxiation or fully anesthetized with avertin (2,2,2-tribromoethanol, Sigma) and cervically dislocated prior to tissue harvest. For flow cytometry, mice were fully anesthetized with avertin and transcardially perfused with 20 ml of PBS. The brain was then isolated and the tumor macrodissected from the surrounding normal tissue. For proliferation analysis, mice were injected intraperitoneally with […] of bromodeoxyuridine (BrdU; Sigma) 2 hours prior to sacrifice. To isolate tissues for frozen histology, mice were fully anesthetized with avertin, transcardially perfused with 10 ml of PBS, followed by 10 ml of 4% paraformaldehyde in PBS (PFA). The brain was postfixed in PFA overnight at 4° C. while other tissues were cryopreserved in 30% sucrose at 4° C. After post-fixation, the brain was then transferred to 30% sucrose and incubated at 4° C. until the brain was fully equilibrated and sank to the bottom of the tube (typically 2 to 3 days). All tissues were then embedded in OCT (Tissue-Tek) and 10 μm cryostat tissue sections were used for all subsequent analysis.
# For immunofluorescence, 10 μm thick frozen sections were thawed and dried at room temperature and then washed in PBS. For the standard staining protocol, tissue sections were blocked in 0.5% PNB in PBS for at least 1 hour at room temperature or up to overnight at 4° C., followed by incubation in primary antibody in 0.25% PNB for 2 hours at room temperature or overnight at 4° C. Sections were then washed in PBS and incubated with the appropriate fluorophore-conjugated secondary antibody (Molecular Probes) at a dilution 1:500 in 0.25% PNB for 1 hour at room temperature. After washing in PBS, tissue sections were counterstained with DAPI (5 mg/ml stock diluted 1:5000 in PBS) for 5 minutes prior to mounting with ProLong Gold Antifade mounting media (Invitrogen).
# For angiogenesis and proliferation analysis, tissue sections were first subjected to citrate buffer based antigen retrieval by submerging in antigen unmasking solution (0.94% v/v in distilled water; Vector Laboratories) and microwaving for 10 minutes on half power, followed by cooling to room temperature for at least 30 minutes. For angiogenesis analysis, tissues were then washed in PBS and blocked with mouse Ig blocking reagent (Vector Laboratories) according to the manufacturer's instructions for 1 hour at room temperature. For proliferation analysis, after antigen retrieval, tissue sections were incubated with 2M HCl for 15 minutes at room temperature to denature DNA and then in neutralizing 0.1M sodium borate buffer (pH 8.5) for 5 minutes. After PBS washes, the rest of the staining was performed according to the standard protocol.
# For staining for phagocytosis analysis, 10 μm thick frozen sections were thawed and dried at room temperature and then washed in PBS. Tissue sections were blocked in 0.5% PNB in PBS for at least 1 hour at room temperature, followed by incubation in rabbit anti-cleaved caspase-3 primary antibody diluted 1:500 in 0.5% PNB overnight at 4° C. The next day, slides were washed 6 times for 5 minutes in PBS prior to incubation with goat-anti-rabbit Alexa568 secondary antibody (1:500 in 0.5% PNB) for 1 hour at room temperature. Tissue sections were then washed 6 times for 5 minutes in PBS and blocked overnight at 4° C. in a new buffer of 5% donkey serum, 3% bovine serum albumin, and 0.5% PNB in PBS. […]
# [7] = tested on: mouse GBM cell cultures (GBM1-4); experiment: Mouse glioma cell line proliferation (MTT); assay type: cell-based
# Protocol: as §1, §2
# [8] = tested on: several hundred kinases in the Ambit kinase array; experiment: Ambit kinase array screen; assay type: binding; settings: lower than 50% only against CSF-1R, PDGFRα and PDGFRβ
# [9] = tested on: glioma in RCAS-PDGF-B-HA/Nestin-Tv-a; Ink4a/Arf−/− mice; experiment: Short-term trial, tumor volume by MRI; assay type: in vivo, mouse
# Protocol: Tumor volume in the RCAS-PDGF-B-HA/Nestin-Tv-a; Ink4a/Arf^−/− mice was determined by MRI, and mice were added to the trial when this was at least 4.5 mm^3 or greater. […] MRI scans were performed on the day before treatment was initiated, at the mid-point of the treatment, and at the day before the end of the trial period.
# The vehicle control, 20% captisol, was processed in the same manner.
# To determine tumor volume, regions of interest (ROI) were circumscribed on T2 weighted images and their corresponding area in mm^2 was multiplied by the slice height of 0.7 mm. The total tumor volume is the sum of the ROI volume in each slice, and the volume for the first and last slice in which the tumor appear is halved to approximate the volume of a trapezoid. When tumor volume was in the range of 4.5-40 mm^3, animals were randomly assigned to treatment groups. […] A size-matched vehicle treated cohort was not included for this cohort having the larger starting tumor burden because these mice would not have been able to survive to the trial endpoint.
# Sequence of CSF-1R (P07333 20-972, species assumed): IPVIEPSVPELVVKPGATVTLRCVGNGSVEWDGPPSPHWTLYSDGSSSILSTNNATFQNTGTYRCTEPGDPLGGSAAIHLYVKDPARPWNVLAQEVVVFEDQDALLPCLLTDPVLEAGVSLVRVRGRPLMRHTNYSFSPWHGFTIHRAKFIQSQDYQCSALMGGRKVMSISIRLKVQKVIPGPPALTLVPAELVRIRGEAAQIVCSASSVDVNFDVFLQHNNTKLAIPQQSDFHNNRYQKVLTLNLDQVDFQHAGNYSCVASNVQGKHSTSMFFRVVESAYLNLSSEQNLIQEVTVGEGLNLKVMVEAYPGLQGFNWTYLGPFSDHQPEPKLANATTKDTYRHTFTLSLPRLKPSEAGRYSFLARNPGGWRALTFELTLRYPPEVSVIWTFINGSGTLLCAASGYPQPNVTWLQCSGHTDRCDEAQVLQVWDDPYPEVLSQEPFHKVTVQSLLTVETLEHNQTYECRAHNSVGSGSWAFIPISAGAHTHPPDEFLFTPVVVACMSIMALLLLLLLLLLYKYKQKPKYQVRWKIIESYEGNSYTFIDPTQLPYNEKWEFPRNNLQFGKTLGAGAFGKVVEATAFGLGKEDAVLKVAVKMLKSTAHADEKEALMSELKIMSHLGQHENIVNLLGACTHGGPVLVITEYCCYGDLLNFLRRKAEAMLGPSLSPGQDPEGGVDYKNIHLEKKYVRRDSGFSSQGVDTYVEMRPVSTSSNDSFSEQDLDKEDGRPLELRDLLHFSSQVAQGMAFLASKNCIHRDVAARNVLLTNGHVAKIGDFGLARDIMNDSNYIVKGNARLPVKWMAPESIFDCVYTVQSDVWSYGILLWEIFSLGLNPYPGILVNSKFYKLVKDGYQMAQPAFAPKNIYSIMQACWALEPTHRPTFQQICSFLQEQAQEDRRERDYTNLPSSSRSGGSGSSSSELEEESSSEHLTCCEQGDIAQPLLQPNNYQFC
# Sequence of PDGFR-β (P09619 33-1106, species assumed): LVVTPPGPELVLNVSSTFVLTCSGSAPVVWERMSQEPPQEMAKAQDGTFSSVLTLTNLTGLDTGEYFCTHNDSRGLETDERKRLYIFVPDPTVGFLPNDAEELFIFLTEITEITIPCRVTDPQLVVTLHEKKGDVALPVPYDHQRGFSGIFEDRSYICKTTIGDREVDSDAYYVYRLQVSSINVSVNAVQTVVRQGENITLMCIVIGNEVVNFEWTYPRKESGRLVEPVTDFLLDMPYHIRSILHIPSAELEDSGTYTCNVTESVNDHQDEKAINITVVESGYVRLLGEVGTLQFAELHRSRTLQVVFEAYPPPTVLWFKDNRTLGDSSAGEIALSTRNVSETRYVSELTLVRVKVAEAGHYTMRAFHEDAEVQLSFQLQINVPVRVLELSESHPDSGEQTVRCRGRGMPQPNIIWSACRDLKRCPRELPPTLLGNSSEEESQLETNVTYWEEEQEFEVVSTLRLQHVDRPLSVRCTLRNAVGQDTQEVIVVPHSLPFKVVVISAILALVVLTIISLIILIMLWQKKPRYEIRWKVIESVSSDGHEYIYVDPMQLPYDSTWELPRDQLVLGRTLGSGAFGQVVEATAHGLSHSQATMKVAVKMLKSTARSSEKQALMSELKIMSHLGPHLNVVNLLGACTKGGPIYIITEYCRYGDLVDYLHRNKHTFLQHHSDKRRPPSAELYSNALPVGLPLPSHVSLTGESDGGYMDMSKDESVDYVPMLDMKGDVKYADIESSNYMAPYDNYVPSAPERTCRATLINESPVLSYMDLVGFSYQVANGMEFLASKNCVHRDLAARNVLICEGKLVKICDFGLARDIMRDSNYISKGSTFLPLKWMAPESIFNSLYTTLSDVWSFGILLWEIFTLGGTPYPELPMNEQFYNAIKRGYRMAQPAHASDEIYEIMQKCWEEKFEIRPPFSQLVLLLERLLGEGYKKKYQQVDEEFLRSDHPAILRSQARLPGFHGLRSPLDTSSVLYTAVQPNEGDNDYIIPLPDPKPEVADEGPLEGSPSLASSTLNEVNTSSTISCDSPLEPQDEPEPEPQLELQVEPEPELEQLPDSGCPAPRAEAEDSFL
smiles,measurement,setting,value
CCCNC(=O)c1cc(Oc2ccc3nc(N[C@@H]4CCCC[C@H]4O)sc3c2)ccn1,IC50,PDGFR-β,7700 nM
same,IC50,CSF-1R,8 nM
CCn1cc(-c2cc(Oc3ccc4nc(N[C@@H]5CCCC[C@H]5O)sc4c3)ccn2)cn1,IC50,PDGFR-β,1700 nM
same,IC50,CSF-1R,3 nM
CNC(=O)c1cc(Oc2ccc3nc(N[C@@H]4CCCC[C@H]4O)sc3c2)ccn1 [BLZ945],treated cohort still alive (symptom-free survival) at trial endpoint,"[1]; 200 mg/kg oral gavage daily, 26 weeks post-injection",64.4%
same,mice with grade II glioma among 4 treated mice sacrificed for histology,"[1]; 12 weeks, of 4 mice",one
same,tumor free mice among 4 treated mice sacrificed for histology,"[1]; 12 weeks, of 4 mice",3
same,treated animals either Grade II or tumor free,[1]; long-term trial,80%
same,treated animals with Grade III tumor,[1]; long-term trial,20%
same,tumor malignancy vs vehicle,[1]; long-term trial,significantly less malignant tumors
same,mice with no detectable lesions,[1]; mice alive at 26-week trial endpoint,56%
same,IC50,[2],~67 nM
same,formation of secondary neurospheres,[3],not altered
same,total number and size of neurospheres,[3]; 670 nM,unaffected
same,IC50,[4],> 10000 nM
same,rate of population doubling of BMDM cells,[5]; 67 nM,same effect on this rate as absence of CSF-1 stimulation
same,macrophage survival,"[5]; 67 nM to 6700 nM, wild-type BMDMs",dramatically blocked macrophage survival
same,Apoptosis (% CC3+),"[6]; BLZ945, Day 3",+17-fold
same,Macrophages (% CD68+),"[6]; BLZ945, Day 3",+3-fold
same,Total DAPI+ Cells,"[6]; BLZ945, Day 3",−72%
same,Tumor Cells (% Olig2+),"[6]; BLZ945, Day 3",−27%
same,Apoptosis (% CC3+),"[6]; BLZ945, Day 7",+6-fold
same,Macrophages (% CD68+),"[6]; BLZ945, Day 7",+2-fold
same,Phagocytic Capacity,"[6]; BLZ945, Day 7",+5.0-fold
same,Total DAPI+ Cells,"[6]; BLZ945, Day 7",−80%
same,Tumor Cells (% Olig2+),"[6]; BLZ945, Day 7",−77%
same,Vasculature (CD31 MVD),"[6]; BLZ945, Day 7",−17%
same,Apoptosis (% CC3+),"[6]; BLZ945 Large, Day 3",+9-fold
same,Macrophages (% CD68+),"[6]; BLZ945 Large, Day 3",+2-fold
same,Phagocytic Capacity,"[6]; BLZ945 Large, Day 3",+7.1-fold
same,Total DAPI+ Cells,"[6]; BLZ945 Large, Day 3",−40%
same,Tumor Cells (% Olig2+),"[6]; BLZ945 Large, Day 3",−14%
same,Apoptosis (% CC3+),"[6]; BLZ945 Large, Day 7",+2-fold
same,Macrophages (% CD68+),"[6]; BLZ945 Large, Day 7",+4-fold
same,Phagocytic Capacity,"[6]; BLZ945 Large, Day 7",+6.0-fold
same,Total DAPI+ Cells,"[6]; BLZ945 Large, Day 7",−65%
same,Tumor Cells (% Olig2+),"[6]; BLZ945 Large, Day 7",−73%
same,Vasculature (CD31 MVD),"[6]; BLZ945 Large, Day 7",−67%
same,level of apoptosis (CC3+),[6]; earlier time point in particular,increase in apoptosis
same,Olig2 (tumor cell density),[6]; vs vehicle controls,significantly reduced
same,effects on tumor cell lines established from secondary mouse GBM neurospheres,[7],no differences
same,activity in Ambit kinase array,[8],lower than 50 % of control
same,treated animals with reduced tumor size,[9]; 6 days of dosing,7 of 11
same,treated animals with tumor volume increases over 50%,"[9]; 6 days, of 11 animals",two
same,tumor size by MRI,[9]; 7 day trial,no increase in tumor size
same,Tumor Volume (Day −1 vs Day 6),"[9]; BLZ945, Day 7, tumors 4.5-40 mm^3",+0.68%
same,treated mice with reduction of at least 30% in tumor size,"[9]; large tumor cohort 48.7 to 132 mm^3, 6 days",6 of 18
same,tumor volume change,"[9]; large tumor cohort, 6 days",decreased in nearly all test animals
CCNC(=O)c1cc(Oc2ccc3nc(N[C@@H]4CCCC[C@H]4O)sc3c2)ccn1 [Ig-B],IC50,PDGFR-β,13900 nM
same,IC50,CSF-1R,6 nM
Cn1cc(-c2cc(Oc3ccc4nc(N[C@@H]5CCCC[C@H]5O)sc4c3)ccn2)cn1 [Ih-A],IC50,PDGFR-β,740 nM
same,IC50,CSF-1R,0.9 nM
CCCn1cc(-c2cc(Oc3ccc4nc(N[C@@H]5CCCC[C@H]5O)sc4c3)ccn2)cn1 [Ih-C],IC50,PDGFR-β,1500 nM
same,IC50,CSF-1R,7 nM
Cn1cc(-c2cc(Oc3ccc4nc(N[C@H]5CCCC[C@@H]5O)sc4c3)ccn2)cn1 [Ih-D],IC50,PDGFR-β,20 nM
same,IC50,CSF-1R,1 nM
